Experimental data as given in patent publication US20220232835A1, “PLANT HEALTH EFFECT OF PURPUREOCILLIUM LILACINUM” (priority 2016, published 2022).

Legend:
[1] = test system: Southern Root Knot Nematode (Meloidogyne incognita); assay: Drench test in tomato: nematicidal activity (percentage of gall reduction); assay type: in vivo; conditions: 10 mg per plant at transplanting; 3,000 Meloidogyne incognita per 100 cm^3 of soil
Description: (§1) To prepare a suitable dosage form the formulated product PL251 (liquid formulation of P. lilacinum comprising BREAK-THRU® S240 and AEROSIL®) is diluted with water to the desired concentration.
(§2) A quantity of 5,000 cm^3 of sandy loam soil, pH 6.8 per pot is mixed with 150,000 infective units (mixed population of eggs and juveniles) of the Southern Root Knot Nematode (Meloidogyne incognita). The desired concentration of Purpureocillium lilacinum strain 251 is drenched in 400 mL of solution (application A) to obtain 80% field capacity. Pots are incubated at 25° C. until transplanting of tomato seedlings (Lycopersicon lycopersicum) at 7 days after drench application A. At the day of transplanting a second drench application (application B) is carried out with 400 mL of solution.
(§3) After transplanting of tomato seedlings several post-plant application patterns are tested using 400 mL of solution per application (Table A).
(§4) In addition, 10 mg of the nematicide fluopyram (VELUM® PRIME, suspension concentrate SC 400) is applied at transplanting and used as a chemical reference. The non-treated control (UTC) is drenched with 400 mL of water at each application. […]
(§5) After the specified period the nematicidal activity is determined on the basis of the percentage of gall reduction. […] Moreover the shoot biomass is also determined to assess the overall plant health status. […]

[2] = test system: tomato seedlings (Lycopersicon lycopersicum); assay: Drench test in tomato: shoot biomass (plant health); assay type: in vivo; conditions: 10 mg fluopyram/plant at transplanting
Description: as §1, §2, §3, §4, §5

## O=C(NCCc1ncc(C(F)(F)F)cc1Cl)c1ccccc1C(F)(F)F [fluopyram]
[1]
  nematicidal activity (percentage of gall reduction): excellent biocontrol activity
[2]
  shoot fresh weight vs UTC (ANOVA, Bonferroni): significant improvement of shoot fresh weight
